In brackets after ≈: the same amount, converted by molar mass. Counter-ions that a name gives are not always drawn. Each block holds one compound with its values, some of them ahead of it.
Columns and labels:
HIV-1 RT = HIV-1 RT (Human immunodeficiency virus type 1 group M subtype B, UniProt P04585); assay: In vitro HIV-1 reverse transcriptase (HIV-1 RT) kit assay; format: biochemical; details: for inhibition at 1 µM: read-out: Inhibition rate (%) (HIV-RT kit assay) (1 μM)
Experimental: In Vitro HIV-1 Reverse Transcriptase (HIV-1 RT) Kit Assay
The HIV-RT inhibition assay was performed using an RT assay kit (Roche) according to the protocol of the kit. […] After 1 h of incubation at 37° C., the reaction mixture was transferred to a streptavidine-coated microtiter plate (MTP). Biotin-labeled dNTPs were incorporated in the template, because of the activity of RT bound to steptavidine. The unbound dNTPs were washed with wash buffer, and antidigoxigenin-peroxidase (anti-DIG-POD) was added to the MTP. The digoxigenin-labeled dNTPs incorporated in the template was bound to the anti-DIG-POD antibody. The unbound anti-DIG-POD was washed, and the peroxide substrate (ABST) was added to the MTP. A colored reaction product was produced during the cleavage of the substrate catalyses with a peroxide enzyme. […] The resulting color intensity was directly proportional to the actual RT activity. The percentage inhibitory activity of the RT inhibitors was calculated by comparing it to that of the sample without an inhibitor.

cholangiocarcinoma = assay: cells; details: for IC50 (μg/mL) HuCCA-1: HuCCA-1 (Cholangiocarcinoma), mean ± standard error, triplicate
Experimental: (§1) Background control wells contained the same volume of the complete culture medium. […] Samples at various concentrations were added to the microplate, which was incubated for another 48 h. Cell viability was determined by staining with MTT assay [3(4,5-dimethylthiazol-2-yl)-2-5diphenyl tetrazolium bromide (Sigma-Aldrich, St. Louis, Mo., USA)]. The reagent was dissolved in phosphate buffered saline at 5 mg/mL and filtered to sterilize and remove the small amount of insoluble residue present in some batches of MTT. […] Subsequently, dimethyl sulfoxide (Merck, Germany) (100 μL) was added to dissolve the resulting formazan by using sonication. The plates were read on a microplate reader (Molecular Devices, CA, USA). OD was measured at testing wavelength of 550 nm and reference wavelength of 650 nm.

hepatocarcinoma = assay: cells; details: for IC50 (μg/mL) HepG2: HepG2 (Hepatocarcinoma), mean ± standard error, triplicate; for IC50: Homo sapiens, HepG2, read-out: IC50 (μg/mL) HepG2
Experimental: as §1

lung carcinoma = assay: cells; details: for IC50 (μg/mL) A549: A549 (Lung carcinoma), mean ± standard error, triplicate
Experimental: as §1

[1] = test system: acute lymphoblastic leukemia (MOLT-3); assay: cells; details: for IC50 (μg/mL) MOLT-3: MOLT-3 (Acute lymphoblastic leukemia), mean ± standard error, triplicate
Experimental: as §1
XTT assay (3′-[1-[(phenylamino)-carbonyl]-3,4-tetrazolium]-bis(4-methoxy-6-nitro)benzene-sulfonic acid hydrate) for suspension cells was performed for acute lymphoblastic leukemia (MOLT-3).

[2] = test system: BxPC-3 pancreatic cancer cells; details: read-out: in vitro EC50; cited from earlier work

Structure (SMILES): Cc1cc(C=O)cc(C)c1Oc1cc(Oc2c(C)cc(C=O)cc2C)c2ccccc2n1 [Compound 1]
Inhibition rate (%) (HIV-RT kit assay) (1 μM) (HIV-1 RT): 42.08%
IC50 (μg/mL) HuCCA-1 (cholangiocarcinoma): 4.71 ± 0.30 µg/mL (≈ 11.1 µM)
IC50 (μg/mL) HepG2 (hepatocarcinoma): 21.55 ± 5.23 µg/mL (≈ 50.6 µM)
IC50 (μg/mL) A549 (lung carcinoma): 16.37 ± 0.56 µg/mL (≈ 38.5 µM)
IC50 (μg/mL) MOLT-3 [1]: 2.62 ± 0.30 µg/mL (≈ 6.16 µM)

Structure (SMILES): Cc1cc(C=O)cc(C)c1Oc1cc(Nc2ccc(C#N)cn2)nc2ccccc12 [Compound 4]
Inhibition rate (%) (HIV-RT kit assay) (1 μM) (HIV-1 RT): 62.23%
IC50 (μg/mL) HuCCA-1 (cholangiocarcinoma): 49.5 ± 0.71 µg/mL (≈ 125 µM)
IC50 (μg/mL) HepG2 (hepatocarcinoma): 36.53 ± 4.65 µg/mL (≈ 92.6 µM)
IC50 (μg/mL) A549 (lung carcinoma): 42.44 ± 0.48 µg/mL (≈ 108 µM)
IC50 (μg/mL) MOLT-3 [1]: 4.98 ± 0.43 µg/mL (≈ 12.6 µM)

Structure (SMILES): Cc1cc(C#N)cc(C)c1Oc1cc(Oc2c(C)cc(C#N)cc2C)c2ccccc2n1 [Compound 5]
Inhibition rate (%) (HIV-RT kit assay) (1 μM) (HIV-1 RT): 40.31%
IC50 (μg/mL) HuCCA-1 (cholangiocarcinoma): 35.02 ± 4.65 µg/mL (≈ 83.5 µM)
IC50 (μg/mL) HepG2 (hepatocarcinoma): 38.67 ± 2.87 µg/mL (≈ 92.2 µM)
IC50 (μg/mL) A549 (lung carcinoma): 23.28 ± 2.40 µg/mL (≈ 55.5 µM)
IC50 (μg/mL) MOLT-3 [1]: ≥50 µg/mL

Structure (SMILES): Cc1cc(C#N)cc(C)c1Oc1cc(Nc2ccc(C#N)cc2)nc2ccccc12 [Compound 6]
Inhibition rate (%) (HIV-RT kit assay) (1 μM) (HIV-1 RT): 47.16%
IC50 (μg/mL) HuCCA-1 (cholangiocarcinoma): ≥50 µg/mL
IC50 (μg/mL) HepG2 (hepatocarcinoma): ≥50 µg/mL
IC50 (μg/mL) A549 (lung carcinoma): ≥50 µg/mL
IC50 (μg/mL) MOLT-3 [1]: 19.04 ± 16.02 µg/mL (≈ 48.8 µM)

Structure (SMILES): N#Cc1ccc(Nc2cc(Oc3ccc(C#N)cc3)c3ccccc3n2)cc1 [Compound 7]
Inhibition rate (%) (HIV-RT kit assay) (1 μM) (HIV-1 RT): 39.71%
IC50 (μg/mL) HuCCA-1 (cholangiocarcinoma): ≥50 µg/mL
IC50 (μg/mL) HepG2 (hepatocarcinoma): ≥50 µg/mL
IC50 (μg/mL) A549 (lung carcinoma): ≥50 µg/mL
IC50 (μg/mL) MOLT-3 [1]: ≥50 µg/mL

Structure (SMILES): N#Cc1ccc(Oc2cc(Nc3ccc(C#N)cn3)nc3ccccc23)cc1 [Compound 8]
Inhibition rate (%) (HIV-RT kit assay) (1 μM) (HIV-1 RT): 27.61%
IC50 (μg/mL) HuCCA-1 (cholangiocarcinoma): 8.31 ± 0.33 µg/mL (≈ 22.9 µM)
IC50 (μg/mL) HepG2 (hepatocarcinoma): 39.96 ± 0.26 µg/mL (≈ 110 µM)
IC50 (μg/mL) A549 (lung carcinoma): 5.09 ± 0.81 µg/mL (≈ 14 µM)
IC50 (μg/mL) MOLT-3 [1]: 5.12 ± 0.41 µg/mL (≈ 14.1 µM)

Structure (SMILES): O=C1Nc2ccc(Cl)cc2[C@@](C#CC2CC2)(C(F)(F)F)O1 [EFV, efavirenz]
EC50 [2]: 315 µM

Structure (SMILES): Cc1ccnc2c1NC(=O)c1cccnc1N2C1CC1 [NVP, nevirapine, reference compound]
inhibition at 1 µM (HIV-1 RT): 55.6%

Structure (SMILES): Cc1cc(/C=C/C#N)cc(C)c1Nc1ccnc(Nc2ccc(C#N)cc2)n1 [TMC278, rilpivirine, reference compound]
inhibition at 1 µM (HIV-1 RT): 96.5%

IC50 (hepatocarcinoma): 0.23 ± 0.02 µg/mL
IC50 (lung carcinoma; Homo sapiens, A549, read-out: IC50 (μg/mL) A549): 0.19 ± 0.01 µg/mL
Structure (SMILES): COc1cccc2c1C(=O)c1c(O)c3c(c(O)c1C2=O)C[C@@](O)(C(=O)CO)C[C@@H]3O[C@H]1C[C@H](N)[C@H](O)[C@H](C)O1 [doxorubicin hydrochloride, reference compound]
IC50 (cholangiocarcinoma; Homo sapiens, HuCC-A1, read-out: IC50 (μg/mL) HuCCA-1): 0.89 ± 0.04 µg/mL

IC50 (hepatocarcinoma): 21.1 ± 0.7 µg/mL (≈ 35.9 µM)
IC50 ([1]; Homo sapiens, MOLT-3, read-out: IC50 (μg/mL) MOLT-3): 0.048 ± 0.007 µg/mL (≈ 0.0816 µM)
Structure (SMILES): COc1cc([C@@H]2c3cc4c(cc3[C@@H](O[C@@H]3O[C@@H]5CO[C@@H](C)O[C@H]5[C@H](O)[C@H]3O)[C@H]3COC(=O)[C@H]23)OCO4)cc(OC)c1O [etoposide, reference compound]
